Test results as given in paper PMC6175411, “Reversible optical control of F1Fo‐ATP synthase using photoswitchable inhibitors” (Febs Letters, 2018).

Biological target: T1, Yarrowia lipolytica F1Fo-ATP synthase (YF1Fo), monomeric (Yarrowia lipolytica, UniProt Q6C326+Q6C338+Q6CFT7)
T1 construct: gene ATP1; complete, genetically unmodified native F1Fo holoenzyme, monomeric form, solubilised in DDM from Y. lipolytica mitochondria; PEG precipitation, glycerol gradient, anion exchange; remaining Fo and peripheral stalk subunits also present; with ATP synthase subunit delta, mitochondrial; ATP synthase subunit epsilon, mitochondrial; ATP synthase subunit 9, mitochondrial (subunit c); ATP synthase subunit a
T1 sequence (Q6C326 25-536): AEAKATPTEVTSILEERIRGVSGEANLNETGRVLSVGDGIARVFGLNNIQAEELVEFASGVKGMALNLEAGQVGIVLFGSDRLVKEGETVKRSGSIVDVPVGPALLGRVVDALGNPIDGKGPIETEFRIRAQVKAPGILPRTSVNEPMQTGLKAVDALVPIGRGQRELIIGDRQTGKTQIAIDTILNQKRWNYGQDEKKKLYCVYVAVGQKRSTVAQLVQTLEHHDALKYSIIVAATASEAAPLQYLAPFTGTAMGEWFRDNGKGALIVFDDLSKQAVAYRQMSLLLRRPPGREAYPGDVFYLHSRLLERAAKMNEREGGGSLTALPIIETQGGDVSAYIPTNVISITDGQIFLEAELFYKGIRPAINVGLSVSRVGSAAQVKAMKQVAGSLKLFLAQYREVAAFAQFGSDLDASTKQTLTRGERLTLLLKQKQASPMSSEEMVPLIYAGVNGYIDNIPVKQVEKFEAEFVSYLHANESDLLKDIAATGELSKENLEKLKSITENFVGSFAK
T1 sequence (Q6CFT7 33-509): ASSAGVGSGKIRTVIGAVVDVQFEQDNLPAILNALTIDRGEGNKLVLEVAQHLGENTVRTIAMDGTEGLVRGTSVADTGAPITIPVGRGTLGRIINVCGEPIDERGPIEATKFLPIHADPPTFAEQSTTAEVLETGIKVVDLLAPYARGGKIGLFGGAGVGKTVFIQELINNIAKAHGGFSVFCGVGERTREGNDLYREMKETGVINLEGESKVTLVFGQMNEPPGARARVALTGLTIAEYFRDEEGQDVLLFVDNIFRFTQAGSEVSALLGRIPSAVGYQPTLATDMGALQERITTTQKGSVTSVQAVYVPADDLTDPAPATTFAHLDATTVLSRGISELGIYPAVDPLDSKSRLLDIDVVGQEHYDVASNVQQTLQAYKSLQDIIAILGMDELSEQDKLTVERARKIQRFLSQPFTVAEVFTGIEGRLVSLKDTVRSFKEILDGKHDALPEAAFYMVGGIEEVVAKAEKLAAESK
T1 sequence (Q6C338 22-293): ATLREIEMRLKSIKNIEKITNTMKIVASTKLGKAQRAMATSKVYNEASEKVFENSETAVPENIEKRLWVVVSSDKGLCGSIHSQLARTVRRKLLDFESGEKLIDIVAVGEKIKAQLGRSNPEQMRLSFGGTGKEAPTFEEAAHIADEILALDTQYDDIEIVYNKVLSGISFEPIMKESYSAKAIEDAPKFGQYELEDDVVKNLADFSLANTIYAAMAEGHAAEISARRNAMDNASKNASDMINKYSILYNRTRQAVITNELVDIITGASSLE
T1 sequence (Q6C877 25-162 partner): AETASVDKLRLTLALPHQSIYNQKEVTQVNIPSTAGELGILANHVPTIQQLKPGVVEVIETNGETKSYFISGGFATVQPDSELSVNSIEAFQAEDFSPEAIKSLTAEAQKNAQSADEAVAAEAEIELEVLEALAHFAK
T1 sequence (Q37695 whole entry partner): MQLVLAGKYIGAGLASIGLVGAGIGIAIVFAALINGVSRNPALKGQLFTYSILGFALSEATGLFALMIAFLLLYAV
Test: malachite green ATP hydrolysis assay
Assay type: biochemical

IC50 [µM]	Structure (SMILES)
140 ± 56.6	Oc1ccc(/N=N/c2cc(O)cc(O)c2)cc1 [PIAS-1, 5‐((4‐hydroxyphenyl)diazenyl)benzene‐1,3‐diol]
> 200	COc1cc(/N=N/c2ccc(O)cc2)cc(OC)c1 [PIAS-2, 4‐((3,5‐dimethoxyphenyl)diazenyl)phenol]
> 200	COc1cc(/N=N/c2ccc(O)c(OC)c2)cc(OC)c1 [PIAS-3, 4‐((3,5‐dimethoxyphenyl)diazenyl)‐2‐methoxyphenol]
14 ± 2.7	Oc1cc(O)cc(/N=N/c2ccc(O)c(O)c2)c1 [PIAS-4, 4‐((3,5‐dihydroxyphenyl)diazenyl)benzene‐1,2‐diol]
185 ± 17.7	Oc1ccc(/C=C/c2cc(O)cc(O)c2)cc1 [resveratrol]
